Test results as given in the supplement of paper PMC10307832.

Legend:
Assay in all cases: relative viability (nuclei count vs DMSO), 5 days (fraction); higher = more cells survive
Olaparib + Phenformin = compound: O=C(c1cc(Cc2n[nH]c(=O)c3ccccc23)ccc1F)N1CCN(C(=O)C2CC2)CC1 [Olaparib] + N=C(N)NC(=N)NCCc1ccccc1 [Phenformin] (partner 250 µM)
Summary of the method: (§1)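 Lung cancer cell lines in 1536-well plates got either a single drug or a fixed anchor-drug dose together with five library-drug doses (not always all listed) in √10 steps, by pin tool, on the day after seeding. Nuclei were counted after 5 days, and relative viability is the treated-to-vehicle ratio of nuclei counts. Values are medians of duplicate plates.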

Olaparib + Trametinib = compound: O=C(c1cc(Cc2n[nH]c(=O)c3ccccc23)ccc1F)N1CCN(C(=O)C2CC2)CC1 [Olaparib] + CC(=O)Nc1cccc(-n2c(=O)n(C3CC3)c(=O)c3c(Nc4ccc(I)cc4F)n(C)c(=O)c(C)c32)c1 [Trametinib] (partner 0.02 µM)
Summary of the method: as §1

Crizotinib + Palbociclib = compound: C[C@@H](Oc1cc(-c2cnn(C3CCNCC3)c2)cnc1N)c1c(Cl)ccc(F)c1Cl [Crizotinib] + CC(=O)c1c(C)c2cnc(Nc3ccc(N4CCNCC4)cn3)nc2n(C2CCCC2)c1=O [Palbociclib] (partner 0.5 µM)
Summary of the method: as §1

Crizotinib + Dasatinib = compound: C[C@@H](Oc1cc(-c2cnn(C3CCNCC3)c2)cnc1N)c1c(Cl)ccc(F)c1Cl [Crizotinib] + Cc1nc(Nc2ncc(C(=O)Nc3c(C)cccc3Cl)s2)cc(N2CCN(CCO)CC2)n1 [Dasatinib] (partner 0.075 µM)
Summary of the method: as §1

Crizotinib + Luminespib = compound: C[C@@H](Oc1cc(-c2cnn(C3CCNCC3)c2)cnc1N)c1c(Cl)ccc(F)c1Cl [Crizotinib] + CCNC(=O)c1noc(-c2cc(C(C)C)c(O)cc2O)c1-c1ccc(CN2CCOCC2)cc1 [Luminespib] (partner 0.01 µM)
Summary of the method: as §1

What does the source list for NCI-H1793?
relative viability (Olaparib + Phenformin; first compound 0.08 µM): 0.341; relative viability (Olaparib + Phenformin; first compound 0.253 µM): 0.348; relative viability (Olaparib + Phenformin; first compound 2.53 µM): 0.305; relative viability (Olaparib + Phenformin; first compound 8 µM): 0.287; relative viability (Olaparib + Trametinib; first compound 0.08 µM): 0.522; relative viability (Olaparib + Trametinib; first compound 0.253 µM): 0.427; relative viability (Olaparib + Trametinib; first compound 2.53 µM): 0.395; relative viability (Olaparib + Trametinib; first compound 8 µM): 0.476; relative viability (Crizotinib + Palbociclib; first compound 0.03162 µM): 0.339; relative viability (Crizotinib + Palbociclib; first compound 0.1 µM): 0.311; relative viability (Crizotinib + Palbociclib; first compound 1 µM): 0.277; relative viability (Crizotinib + Dasatinib; first compound 0.03162 µM): 0.401; relative viability (Crizotinib + Dasatinib; first compound 0.1 µM): 0.382; relative viability (Crizotinib + Dasatinib; first compound 1 µM): 0.369; relative viability (Crizotinib + Luminespib; first compound 0.03162 µM): 0.209; relative viability (Crizotinib + Luminespib; first compound 0.1 µM): 0.178; relative viability (Crizotinib + Luminespib; first compound 1 µM): 0.161
